{"source": "ChEMBL document CHEMBL5346860", "about": "“Cancer multidrug-resistance reversal by ABCB1 inhibition: A recent update” (Eur J Med Chem, 2022)", "key": {"[1]": {"target": "T1, ATP-dependent translocase ABCB1 (Homo sapiens, UniProt P08183)", "T1 sequence (P08183 whole entry)": "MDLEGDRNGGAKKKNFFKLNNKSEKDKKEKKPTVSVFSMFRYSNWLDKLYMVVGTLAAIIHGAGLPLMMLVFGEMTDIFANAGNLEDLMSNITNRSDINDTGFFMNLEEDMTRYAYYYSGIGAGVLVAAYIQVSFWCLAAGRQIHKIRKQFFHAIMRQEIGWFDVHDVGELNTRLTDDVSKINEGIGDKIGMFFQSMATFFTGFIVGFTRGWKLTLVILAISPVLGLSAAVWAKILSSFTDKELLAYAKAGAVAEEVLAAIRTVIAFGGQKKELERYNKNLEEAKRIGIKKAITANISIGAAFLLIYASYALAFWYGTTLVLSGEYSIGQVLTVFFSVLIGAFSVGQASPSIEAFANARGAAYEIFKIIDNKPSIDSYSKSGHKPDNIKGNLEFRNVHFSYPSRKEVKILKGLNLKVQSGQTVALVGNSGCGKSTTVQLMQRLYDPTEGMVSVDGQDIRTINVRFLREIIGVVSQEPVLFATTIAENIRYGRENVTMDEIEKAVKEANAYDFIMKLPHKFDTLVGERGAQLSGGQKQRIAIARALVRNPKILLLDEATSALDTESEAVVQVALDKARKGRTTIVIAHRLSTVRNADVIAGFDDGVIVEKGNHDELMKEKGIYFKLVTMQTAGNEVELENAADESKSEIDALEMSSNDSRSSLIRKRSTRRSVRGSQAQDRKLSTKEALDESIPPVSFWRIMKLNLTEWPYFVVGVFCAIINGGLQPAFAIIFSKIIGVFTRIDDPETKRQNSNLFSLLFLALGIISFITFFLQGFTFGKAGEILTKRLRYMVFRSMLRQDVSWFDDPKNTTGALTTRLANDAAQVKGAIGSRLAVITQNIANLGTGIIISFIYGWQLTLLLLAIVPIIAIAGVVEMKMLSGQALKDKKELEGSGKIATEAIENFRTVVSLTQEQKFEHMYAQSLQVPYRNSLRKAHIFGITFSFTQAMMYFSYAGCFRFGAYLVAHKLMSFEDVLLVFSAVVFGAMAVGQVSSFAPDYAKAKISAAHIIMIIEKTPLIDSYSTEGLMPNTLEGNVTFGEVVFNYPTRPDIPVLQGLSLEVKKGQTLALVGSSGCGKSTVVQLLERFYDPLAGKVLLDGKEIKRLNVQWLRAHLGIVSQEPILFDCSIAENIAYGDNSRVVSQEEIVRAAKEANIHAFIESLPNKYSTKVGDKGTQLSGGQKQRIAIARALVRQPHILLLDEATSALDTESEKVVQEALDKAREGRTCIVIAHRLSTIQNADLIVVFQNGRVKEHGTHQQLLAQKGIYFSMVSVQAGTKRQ", "assay": "Inhibition of P-gp1 efflux in human Flp-In-293 cells using rhodamine as substrate assessed as increase in intracellular accumulation of rhodamine 123 preincubated for 30 mins followed by substrate addition and measured for 10 mins by fluorescence based assay", "format": "cell-based"}, "[2]": {"target": "T1, ATP-dependent translocase ABCB1", "assay": "Inhibition of P-gp1 efflux in human Flp-In-293 cells using calcein-AM as substrate assessed as increase in intracellular accumulation of calcein-AM preincubated for 30 mins followed by substrate addition and measured for 30 mins by fluorescence based assay", "format": "cell-based"}, "[3]": {"target": "T1, ATP-dependent translocase ABCB1", "assay": "Inhibition of ABCB1 efflux pump in human LS180 cells using Rh123 as substrate incubated for 90 mins by fluorescence based assay", "format": "cell-based"}, "cells": {"assay": "cells", "conditions": "Homo sapiens, EPP85-181RDB, 72 h", "description": "Antiproliferative activity against daunorubicin-resistant human EPP85-181 cells incubated for 72 hrs by annexin-V-PI staining based flow cytometry"}, "[4]": {"assay": "Antiproliferative activity against daunorubicin-resistant human EPG85-257 cells incubated for 72 hrs by annexin-V-PI staining based flow cytometry", "format": "functional, EPG85-257RDB"}, "L5178Y [5]": {"system": "L5178Y", "assay": "Cytotoxicity against multidrug-resistant mouse L5178Y cells expressing ABCB1 assessed as cell growth inhibition incubated for 24 hrs by MTT assay", "format": "functional, cell-based"}, "L5178Y [6]": {"system": "L5178Y", "assay": "Cytotoxicity against multi-drug resistant mouse L5178Y cells expressing ABCB1 assessed as cell growth inhibition incubated for 24 hrs by MTT assay", "format": "functional, cell-based"}, "[7]": {"target": "T2, Broad substrate specificity ATP-binding cassette transporter ABCG2 (Homo sapiens, UniProt Q9UNQ0)", "T2 sequence (Q9UNQ0 whole entry)": "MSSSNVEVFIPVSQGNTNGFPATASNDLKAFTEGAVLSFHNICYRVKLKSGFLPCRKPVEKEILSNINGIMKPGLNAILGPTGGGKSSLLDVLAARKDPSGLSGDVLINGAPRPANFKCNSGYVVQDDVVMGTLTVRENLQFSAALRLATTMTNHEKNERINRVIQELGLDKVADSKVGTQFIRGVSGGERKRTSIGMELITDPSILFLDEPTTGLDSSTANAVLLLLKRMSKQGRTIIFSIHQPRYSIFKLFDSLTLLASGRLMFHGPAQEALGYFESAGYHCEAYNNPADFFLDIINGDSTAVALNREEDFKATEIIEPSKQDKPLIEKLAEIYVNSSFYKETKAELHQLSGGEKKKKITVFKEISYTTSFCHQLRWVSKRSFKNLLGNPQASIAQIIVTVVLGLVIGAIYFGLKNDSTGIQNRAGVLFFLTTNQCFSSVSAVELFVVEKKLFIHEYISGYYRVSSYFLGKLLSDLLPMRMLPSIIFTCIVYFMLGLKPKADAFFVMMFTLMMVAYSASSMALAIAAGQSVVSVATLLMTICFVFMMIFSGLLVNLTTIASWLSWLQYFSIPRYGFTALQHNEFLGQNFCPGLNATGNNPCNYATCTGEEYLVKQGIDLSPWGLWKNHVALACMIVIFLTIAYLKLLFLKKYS", "assay": "Inhibition of BCRP efflux pump in human MCF7 cells assessed as fold increase in vinblastine cellular accumulation", "format": "cell-based"}, "[8]": {"target": "T1, ATP-dependent translocase ABCB1", "assay": "Inhibition of P-gp efflux pump in human MCF7 cells assessed as fold increase in vinblastine cellular accumulation", "format": "cell-based"}, "[9]": {"target": "Multidrug resistance-associated protein 1 (Homo sapiens, UniProt P33527)", "sequence (P33527 whole entry)": "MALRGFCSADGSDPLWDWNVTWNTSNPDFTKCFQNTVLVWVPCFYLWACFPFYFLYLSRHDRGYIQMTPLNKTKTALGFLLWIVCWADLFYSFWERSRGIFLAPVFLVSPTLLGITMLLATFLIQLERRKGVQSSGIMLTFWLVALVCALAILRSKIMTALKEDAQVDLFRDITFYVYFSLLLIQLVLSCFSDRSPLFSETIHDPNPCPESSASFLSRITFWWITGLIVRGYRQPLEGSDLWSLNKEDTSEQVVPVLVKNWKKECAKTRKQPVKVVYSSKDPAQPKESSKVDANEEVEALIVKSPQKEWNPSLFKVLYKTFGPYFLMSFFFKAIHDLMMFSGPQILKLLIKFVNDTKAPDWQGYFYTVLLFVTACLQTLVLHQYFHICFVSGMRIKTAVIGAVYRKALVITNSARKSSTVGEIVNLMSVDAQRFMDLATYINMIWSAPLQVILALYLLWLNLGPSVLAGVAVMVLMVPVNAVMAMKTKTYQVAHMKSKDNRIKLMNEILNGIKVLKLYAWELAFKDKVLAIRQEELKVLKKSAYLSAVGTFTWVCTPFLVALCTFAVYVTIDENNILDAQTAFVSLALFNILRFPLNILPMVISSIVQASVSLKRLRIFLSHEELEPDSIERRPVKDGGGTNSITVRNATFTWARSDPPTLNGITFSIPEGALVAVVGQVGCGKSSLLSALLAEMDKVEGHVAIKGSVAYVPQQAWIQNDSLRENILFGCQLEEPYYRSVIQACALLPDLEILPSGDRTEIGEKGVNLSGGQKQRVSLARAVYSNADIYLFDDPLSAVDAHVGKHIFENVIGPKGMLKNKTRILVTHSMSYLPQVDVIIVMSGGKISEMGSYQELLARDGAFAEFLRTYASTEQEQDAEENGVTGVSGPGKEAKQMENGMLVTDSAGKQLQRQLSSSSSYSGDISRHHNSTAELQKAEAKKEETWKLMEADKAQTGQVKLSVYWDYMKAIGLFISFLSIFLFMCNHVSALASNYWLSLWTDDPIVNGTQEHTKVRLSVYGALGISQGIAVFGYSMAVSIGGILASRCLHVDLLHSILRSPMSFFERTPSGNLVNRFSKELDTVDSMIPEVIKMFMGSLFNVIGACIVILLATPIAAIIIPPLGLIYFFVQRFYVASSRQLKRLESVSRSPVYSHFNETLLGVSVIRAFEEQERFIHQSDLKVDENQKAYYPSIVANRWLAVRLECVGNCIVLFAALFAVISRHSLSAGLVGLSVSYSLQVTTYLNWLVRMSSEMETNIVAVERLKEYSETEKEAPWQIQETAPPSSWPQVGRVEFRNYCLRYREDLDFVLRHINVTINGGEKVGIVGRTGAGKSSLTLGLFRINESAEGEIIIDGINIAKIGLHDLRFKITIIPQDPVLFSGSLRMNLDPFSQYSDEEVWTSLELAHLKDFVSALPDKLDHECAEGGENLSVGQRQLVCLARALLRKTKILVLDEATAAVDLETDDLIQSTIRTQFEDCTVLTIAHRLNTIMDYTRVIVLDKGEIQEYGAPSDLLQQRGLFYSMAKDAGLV", "assay": "Inhibition of MRP1 efflux pump in human MCF7 cells assessed as fold increase in vinblastine cellular accumulation", "format": "cell-based"}, "KB 3-1": {"system": "KB 3-1", "assay": "cells", "conditions": "Homo sapiens, KB 3-1, 72 h", "description": "Cytotoxicity against human KB 3-1 cells assessed as cell growth inhibition incubated for 72 hrs by MTS assay"}, "KB-V1": {"system": "KB-V1", "assay": "cells", "conditions": "Homo sapiens, KB-V1, 72 h", "description": "Cytotoxicity against human KB-V1 cells assessed as cell growth inhibition incubated for 72 hrs by MTS assay"}, "[10]": {"assay": "Reversal of doxorubicin resistance in human Flp-In-293 cells expressing ABCB1 assessed as cell growth inhibition in presence of caffeic acid for 30 mins by fluorescence based assay", "format": "functional", "conditions": "Flp-In-293, 0.5 h"}, "[11]": {"assay": "Reversal of paclitaxel resistance in human Flp-In-293 cells expressing ABCB1 assessed as fold change in paclitaxel IC50 in presence of caffeic acid for 30 mins by fluorescence based assay", "format": "functional", "conditions": "0.5 h"}, "[12]": {"assay": "Reversal of vincristine resistance in human Flp-In-293 cells expressing ABCB1 assessed as cell growth inhibition in presence of caffeic acid for 30 mins by fluorescence based assay", "format": "functional", "conditions": "Flp-In-293, 0.5 h"}, "[13]": {"assay": "Reversal of […] in human Flp-In-293 cells expressing ABCB1 assessed as fold change in doxorubicin IC50 in presence of caffeic acid for 30 mins by fluorescence based assay", "format": "functional", "conditions": "0.5 h"}, "[14]": {"assay": "Reversal of paclitaxel resistance in human Flp-In-293 cells expressing ABCB1 assessed as cell growth inhibition in presence of caffeic acid for 30 mins by fluorescence based assay", "format": "functional", "conditions": "Flp-In-293, 0.5 h"}, "[15]": {"assay": "Reversal of vincristine resistance in human Flp-In-293 cells expressing ABCB1 assessed as fold change in vincristine IC50 in presence of caffeic acid for 30 mins by fluorescence based assay", "format": "functional", "conditions": "0.5 h"}}}
{"smiles": "COc1cc(/C=C/C(=O)CC(=O)/C=C/c2ccc(O)cc2)ccc1O", "values": [{"measurement": "IC50", "setting": "[1]", "value": 1.56, "unit": "µM"}, {"measurement": "IC50", "setting": "[2]", "value": 1.56, "unit": "µM"}]}
{"smiles": "O=C(Nc1ccc(F)cc1)c1sccc1Nc1cccc2c1OCCO2", "values": [{"measurement": "EC50", "setting": "[3]", "value": 35, "unit": "µM"}]}
{"smiles": "O=C(Nc1ccc(F)cc1)c1sccc1Nc1cccc2c1OCO2", "values": [{"measurement": "EC50", "setting": "[3]", "value": 35, "unit": "µM"}]}
{"smiles": "C=C1[C@H](OC(=O)C(C)C)C[C@@H](OC(=O)c2cccnc2)C(C)(C)/C=C/[C@@H](C)C(=O)[C@@]2(OC(C)=O)C[C@H](C)[C@H](OC(C)=O)[C@@H]2[C@H]1OC(C)=O", "values": [{"measurement": "IC50", "setting": "cells", "value": 4.8, "unit": "µM"}, {"measurement": "IC5", "setting": "[4]", "value": 1.8, "unit": "µM"}]}
{"smiles": "C#CCn1c(-c2ccc(OC)cc2)nc2cc(Br)cnc21", "values": [{"measurement": "IC50", "setting": "L5178Y [5]", "value": 0.2, "unit": "µM"}]}
{"smiles": "O=C(C(C(=O)C(F)(F)C(F)(F)F)=P(c1ccccc1)(c1ccccc1)c1ccccc1)c1ccccc1", "values": [{"measurement": "IC50", "setting": "L5178Y [6]", "value": 39.4, "unit": "µg/mL"}]}
{"smiles": "O=C(C(C(=O)C(F)(F)C(F)(F)C(F)(F)F)=P(c1ccccc1)(c1ccccc1)c1ccccc1)c1ccccc1", "values": [{"measurement": "IC50", "setting": "L5178Y [6]", "value": 42.4, "unit": "µg/mL"}]}
{"smiles": "O=C(C(C(=O)C(F)(F)F)=P(c1ccccc1)(c1ccccc1)c1ccccc1)c1ccccc1", "values": [{"measurement": "IC50", "setting": "L5178Y [6]", "value": 37, "unit": "µg/mL"}]}
{"smiles": "CCCN(CCC)S(=O)(=O)c1ccc(C(=O)CC[C@H](N)C(=O)O)cc1", "values": [{"measurement": "fold change (FC)", "setting": "[7]", "value": 3}, {"measurement": "fold change (FC)", "setting": "[8]", "value": 3}, {"measurement": "fold change (FC)", "setting": "[9]", "value": 3}]}
{"smiles": "COc1ccc(CCC2c3cc(OCc4ccccc4)c(OC)cc3CCN2C)cc1OCc1ccccc1", "note": "(racemic)", "values": [{"measurement": "IC50", "setting": "KB 3-1", "value": 11.5, "unit": "µM"}, {"measurement": "IC50", "setting": "KB-V1", "value": 15.1, "unit": "µM"}]}
{"smiles": "O=C(O)/C=C/c1ccc(O)c(O)c1", "note": "[CAFFEIC ACID]", "values": [{"measurement": "IC50", "setting": "[10]", "value": 0.597, "unit": "µM"}, {"measurement": "fold change (FC)", "setting": "[11]", "value": 4.96}, {"measurement": "IC50", "setting": "[12]", "value": 0.198, "unit": "µM"}, {"measurement": "fold change (FC)", "setting": "[13]", "value": 15.11}, {"measurement": "IC50", "setting": "[14]", "value": 0.125, "unit": "µM"}, {"measurement": "fold change (FC)", "setting": "[15]", "value": 3.9}]}
{"smiles": "C/C=C/C[C@@H](C)[C@@H](O)[C@H]1C(=O)N[C@@H](CC)C(=O)N(C)CC(=O)N(C)[C@@H](CC(C)C)C(=O)N[C@@H](C(C)C)C(=O)N(C)[C@@H](CC(C)C)C(=O)N[C@@H](C)C(=O)N[C@H](C)C(=O)N(C)[C@@H](CC(C)C)C(=O)N(C)[C@@H](CC(C)C)C(=O)N(C)[C@@H](C(C)C)C(=O)N1C", "note": "[CYCLOSPORINE]", "values": [{"measurement": "IC50", "setting": "KB 3-1", "value": 23.9, "unit": "µM"}, {"measurement": "IC50", "setting": "KB-V1", "value": 7.95, "unit": "µM"}]}
